By EC50 is commonly meant the concentration at which the effect is half-maximal.

Assay [1] relates to Dengue-2 (Strain New Guinea C). The assay is described as follows: Viral yield assay against Dengue-2 in Vero cells. Type of assay: cell-based, Dengue virus. The conditions noted are these: Dengue virus, read-out: Activity (EC50 in μM) DENV-2. In a few lines:
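Yield reduction, Vero; MOI 0.1; compound vs DMSO; 37° C; harvest 48 h p.i.; titer on Vero; EC50 fitted. Other serotypes run the same way.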

For assay [2], the system named is DENV-1. The experiment in a line: Viral yield assay against DENV-1 in Vero cells. The conditions noted are these: Dengue virus. Type of assay: cell-based. How it is done:
(§1) Compounds that were active in the primary screen were tested for activity in viral yield assays. […] Vero cells in 12-well plates were infected with dengue-2 virus at a multiplicity of infection (MOI) of 0.1, treated with compound (or DMSO as a control), incubated at 37° C., harvested 48 hours post infection and titered on Vero cells as described above. The EC50 was calculated through ExcelFit. Activities against other serotypes of dengue virus were determined in a similar way.

In assay [3] the test system is DENV-3. The assay is described as follows: Viral yield assay against DENV-3 in Vero cells. Type of assay: cell-based. The conditions noted are these: Dengue virus. How it is done: as §1
Assay [4] deals with DENV-4. The experiment in a line: Viral yield assay against DENV-4 in Vero cells. In kind it is cell-based. The conditions noted are these: Dengue virus. As for the experimental part:
as §1

[5] abbreviates: DENV2, viral yield assay, Vero cells, MOI 0.1, 48 hours post infection.

Where two headings read alike, the source gives them in different places. Some results are limits rather than exact numbers.

Consider `Nc1c(C(=O)Nc2cccc(Cl)c2)sc2nc(-c3ccc(Cl)cc3)ccc12` [Compound 344, 3-amino-N-(3-chlorophenyl)-6-(4-chloro-phenyl)thieno[2,3-b]pyridine-2-carboxamide], for which the EC50 is less than 5 µM in assay [1] (setting [5]); less than 5 µM in assay [2] (DENV1, viral yield assay); less than 5 µM in assay [3] (DENV3, viral yield assay); less than 5 µM in assay [4] (DENV4, viral yield assay).
With `Nc1c(C(=O)Nc2ccc(OC(F)F)cc2)sc2nc(-c3cccc(OC(F)F)c3)ccc12` [Compound 345, 3-amino-6-[3-(difluoromethoxy)phenyl]-N-[4-(difluoromethoxy)phenyl]thieno[2,3-b]pyridine-2-carboxamide], the EC50 is less than 5 µM in assay [1] (setting [5]); less than 5 µM in assay [2] (DENV1, viral yield assay); less than 5 µM in assay [3] (DENV3, viral yield assay); less than 5 µM in assay [4] (DENV4, viral yield assay).
For the compound `Nc1c(C(=O)Nc2ccc(Br)cc2)sc2nc(-c3ccc(Cl)cn3)ccc12` [Compound 349, 3-amino-N-(4-bromophenyl)-6-(5-chloro-2-pyridyl)thieno [2,3-b]pyridine-2-carboxamide], the EC50 was less than 5 µM in assay [1] (setting [5]); less than 5 µM in assay [2] (DENV1, viral yield assay); less than 5 µM in assay [3] (DENV3, viral yield assay); less than 5 µM in assay [4] (DENV4, viral yield assay).
Consider `Nc1c(C(=O)N(CCC(=O)O)c2ccc(Br)cc2)sc2nc(-c3ccc(Cl)cc3)ccc12` [Compound 350, 3-(N-[3-amino-6-(4-chloro-phenyl)thieno [2,3-b]pyridine-2-carbonyl]-4-bromoanilino) propanoic acid], for which the EC50 is less than 5 µM in assay [1] (setting [5]); less than 5 µM in assay [2] (DENV1, viral yield assay); less than 5 µM in assay [3] (DENV3, viral yield assay); less than 5 µM in assay [4] (DENV4, viral yield assay).
As for `Nc1c(C(=O)Nc2ccc(Cl)cn2)sc2nc(-c3ccc(Cl)cc3)ccc12` [Compound 352, 3-amino-6-(4-chlorophenyl)-N-(5-chloro-2-pyridyl)thieno [2,3-b]pyridine-2-carboxamide], the EC50 was less than 5 µM in assay [1] (setting [5]); less than 5 µM in assay [2] (DENV1, viral yield assay); less than 5 µM in assay [3] (DENV3, viral yield assay); less than 5 µM in assay [4] (DENV4, viral yield assay).
`Nc1c(C(=O)Nc2ccc(Cl)nc2)sc2nc(-c3ccc(Cl)cc3)ccc12` [Compound 353, 3-amino-6-(4-chlorophenyl)-N-(6-chloro-3-pyridyl)thieno [2,3-b]pyridine-2-carboxamide]: the EC50 is less than 5 µM in assay [1] (setting [5]); less than 5 µM in assay [2] (DENV1, viral yield assay); less than 5 µM in assay [3] (DENV3, viral yield assay); less than 5 µM in assay [4] (DENV4, viral yield assay).
`CC(=O)Nc1c(C(=O)Nc2nnc(-c3ccccc3)s2)sc2nc3c(cc12)CCCCC3` [Compound 358, 3-acetamido-N-(5-phenyl-1,3,4-thiadiazol-2-yl)-6,7,8,9-tetrahydro-5H-cyclohepta[b]thieno[3,2-e]pyridine-2-carboxamide]: the EC50 in assay [1] (DENV2, Vero cells) was less than 5 µM; in assay [2] (DENV1), less than 5 µM; in assay [3] (DENV3), 5 to 25 µM; in assay [4] (DENV4) it was greater than 25 µM.
With `CNc1c(C(=O)Nc2nnc(-c3ccccc3)s2)sc2nc3c(cc12)CCCCC3` [Compound 359, 3-(methylamino)-N-(5-phenyl-1,3,4-thiadiazol-2-yl)-6,7,8,9-tetrahydro-5H-cyclohepta[b]thieno[3,2-e]pyridine-2-carboxamide], the EC50 is less than 5 µM in assay [1] (DENV2, Vero cells); less than 5 µM in assay [2] (DENV1); greater than 25 µM in assay [3] (DENV3); 5 to 25 µM in assay [4] (DENV4).
For the compound `O=C(Nc1c(C(=O)Nc2nnc(-c3ccccc3)s2)sc2nc3c(cc12)CCCCC3)c1ccccn1` [Compound 360, N-(5-phenyl-1,3,4-thiadiazol-2-yl)-3-(picolinamido)-6,7,8,9-tetrahydro-5H-cyclohepta[b]thieno[3,2-e]pyridine-2-carboxamide], the EC50 in assay [1] (DENV2, Vero cells) is less than 5 µM; in assay [2] (DENV1), greater than 25 µM; in assay [3] (DENV3), greater than 25 µM; in assay [4] (DENV4) it was less than 5 µM.
In the case of `NCC(=O)Nc1c(C(=O)Nc2nnc(-c3ccccc3)s2)sc2nc(Cl)ccc12` [Compound 361, 3-[(2-aminoacetyl)amino]-6-chloro-N-(5-phenyl-1,3,4-thiadiazol-2-yl)thieno[2,3-b]pyridine-2-carboxamide], the EC50 was less than 5 µM in assay [1] (DENV2, Vero cells); less than 5 µM in assay [2] (DENV1); less than 5 µM in assay [3] (DENV3); greater than 25 µM in assay [4] (DENV4).
In the case of `O=C(O)CC(=O)Nc1c(C(=O)Nc2nnc(-c3ccccc3)s2)sc2nc(Cl)ccc12` [Compound 362, 3-[[6-chloro-2-[(5-phenyl-1,3,4-thiadiazol-2-yl)carbamoyl]thieno[2,3-b]pyridin-3-yl]amino]-3-oxo-propanoic acid], the EC50 is 5 to 25 µM in assay [1] (DENV2, Vero cells); 5 to 25 µM in assay [2] (DENV1); greater than 25 µM in assay [3] (DENV3); greater than 25 µM in assay [4] (DENV4).
Regarding `O=C(O)CN(CC(=O)O)c1c(C(=O)Nc2cccc(C(F)(F)F)c2)sc2nc(-c3cccs3)ccc12` [Compound 363, 2-[carboxymethyl-[6-(2-thienyl)-2-[[3-(trifluoromethyl)phenyl]carbamoyl]thieno[2,3-b]pyridin-3-yl]amino]acetic acid], the EC50 in assay [1] (DENV2, Vero cells) was less than 5 µM; in assay [2] (DENV1), 5 to 25 µM; in assay [3] (DENV3) it was greater than 25 µM; in assay [4] (DENV4) it was greater than 25 µM.
Consider `Cc1cccc2cc3c(N)c(C(=O)Nc4cccc(C(F)(F)F)c4)sc3nc12` [Compound 364, 3-amino-8-methyl-N-(3-(trifluoromethyl)phenyl)thieno [2,3-b]quinoline-2-carboxamide], for which the EC50 is less than 5 µM in assay [1] (setting [5]); less than 5 µM in assay [2] (DENV1, viral yield assay); less than 5 µM in assay [3] (DENV3, viral yield assay); less than 5 µM in assay [4] (DENV4, viral yield assay).
For the compound `Nc1c(C(=O)Nc2ccc3ccccc3c2)sc2nc3c(cc12)CCCCC3` [Compound 365, 3-amino-N-(naphthalen-2-yl)-6,7,8,9-tetrahydro-5H-cyclohexpta[b]thieno[3,2-e] pyridine-2-carboxamide], the EC50 is less than 5 µM in assay [1] (setting [5]); 5 to 25 µM in assay [2] (DENV1, viral yield assay); 5 to 25 µM in assay [3] (DENV3, viral yield assay); greater than 25 µM in assay [4] (DENV4, viral yield assay).
With `Nc1c(C(=O)Nc2cccc(C(F)(F)F)c2)sc2nc3c(cc12)CCCCC3` [Compound 368, 3-amino-N-(3-(trifluoromethyl)phenyl)-6,7,8,9-tetrahydro-5H-cyclohepta[b]thieno [3,2-e]pyridine-2-carboxamide], the EC50 is less than 5 µM in assay [1] (setting [5]); less than 5 µM in assay [2] (DENV1, viral yield assay); less than 5 µM in assay [3] (DENV3, viral yield assay); less than 5 µM in assay [4] (DENV4, viral yield assay).
As for `Nc1c(C(=O)Nc2ccc(OC(F)(F)F)cc2)sc2nc3c(cc12)CCCCC3` [Compound 369, 3-amino-N-(4-(trifluroomethoxy)phenyl)-6,7,8,9-tetrahydro-5H-cyclohepta[b]thieno [3,2-e]pyridine-2-carboxamide], the EC50 in assay [1] (setting [5]) was less than 5 µM; in assay [2] (DENV1, viral yield assay) it was 5 to 25 µM; in assay [3] (DENV3, viral yield assay), less than 5 µM; in assay [4] (DENV4, viral yield assay), less than 5 µM.
With `Nc1c(C(=O)N(c2ccccc2)c2ccccc2)sc2nc3c(cc12)CCCCC3` [Compound 373, 3-amino-N,N-diphenyl-6,7,8,9-tetrahydro-5H-cyclohepta[b]thieno[3,2-e]pyridine-2-carboxamide], the EC50 in assay [1] (setting [5]) is less than 5 µM; in assay [2] (DENV1, viral yield assay), less than 5 µM; in assay [3] (DENV3, viral yield assay) it was less than 5 µM; in assay [4] (DENV4, viral yield assay) it was less than 5 µM.
As to `Nc1c(C(=O)Nc2ccccc2)sc2nc(-c3cccs3)ccc12` [Compound 411, 3-amino-N-phenyl-6-(2-thienyl)thieno [2,3-b]pyridin-2-carboxamide], the EC50 in assay [1] (DENV2, Vero, 48 h) was less than 5 µM; in assay [2] (DENV1, viral yield assay), less than 5 µM; in assay [3] (DENV3, viral yield assay), less than 5 µM; in assay [4] (DENV4, viral yield assay), less than 5 µM.
Take `Nc1c(C(=O)Nc2ccc(Cl)c(Cl)c2)sc2nc(-c3cccs3)ccc12` [Compound 413, 3-amino-N-(3,4-dichlorophenyl)-6-(2-thienyl)thieno[2,3-b]pyridine-2-carboxamide]: the EC50 is less than 5 µM in assay [1] (setting [5]); less than 5 µM in assay [2] (DENV1, viral yield assay); less than 5 µM in assay [3] (DENV3, viral yield assay); less than 5 µM in assay [4] (DENV4, viral yield assay).
With `Cc1ccc(NC(=O)c2sc3nc(-c4cccs4)ccc3c2N)cc1C` [Compound 414, 3-amino-N-(3,4-dimethylphenyl)-6-(2-thienyl)thieno[2,3-b]pyridine-2-carboxamide], the EC50 in assay [1] (setting [5]) was less than 5 µM; in assay [2] (DENV1, viral yield assay) it was less than 5 µM; in assay [3] (DENV3, viral yield assay), less than 5 µM; in assay [4] (DENV4, viral yield assay), less than 5 µM.
Turning to `Nc1c(C(=O)Nc2ccc3c(c2)OCCO3)sc2nc(-c3cccs3)ccc12` [Compound 415, 3-amino-N-(2,3-dihydro-1,4-benzodioxin-6-yl)-6-(2-thienyl)thieno[2,3-b] pyridine-2-carboxamide], the EC50 is less than 5 µM in assay [1] (setting [5]); less than 5 µM in assay [2] (DENV1, viral yield assay); less than 5 µM in assay [3] (DENV3, viral yield assay); less than 5 µM in assay [4] (DENV4, viral yield assay).
Consider `Nc1c(C(=O)Nc2ccc(OC(F)(F)F)cc2)sc2nc(-c3ccncc3)ccc12` [Compound 417, 3-amino-6-(4-pyridyl)-N-[4-(trifluoromethoxy)phenyl]thieno[2,3-b] pyridine-2-carboxamide], for which the EC50 in assay [1] (setting [5]) is less than 5 µM; in assay [2] (DENV1, viral yield assay), less than 5 µM; in assay [3] (DENV3, viral yield assay), less than 5 µM; in assay [4] (DENV4, viral yield assay) it was less than 5 µM.
`Nc1c(C(=O)Nc2ccc(Br)cc2)sc2nc(-c3ccc(Cl)cc3)ccc12` [Compound 425]: the EC50 is less than 5 µM in assay [1] (setting [5]); less than 5 µM in assay [2] (DENV1, viral yield assay); less than 5 µM in assay [3] (DENV3, viral yield assay); less than 5 µM in assay [4] (DENV4, viral yield assay).

The record behind these values is patent US20170121344A1 (Siga Technologies, Inc., priority 2009, published 2017).
